In the test the target is human aldose reductase (AR) (Homo sapiens, UniProt P15121). As to the kind of experiment: X-ray crystallography. It is filed as biochemical.

As for `O=C(O)COc1cc(F)ccc1C(=S)NCc1ccc(Br)cc1F` [compound 594, IDD594], the IC50 is 124 ± 10 nM.

Source of the values: publication PMC4671318 (Proteins, 2012).
